A short description of one series: Chymotrypsin, pH 7. The source says: Table printed on a drawing sheet, FIG. 17C
Title: Chymotrypsin, pH 7
First reader's note: The table also serves as the legend of the plot of fraction intact over time; the line and marker symbols are left out.

Another series addresses T1, chymotrypsin (Bos taurus, UniProt P00766).
T1 construct: purchased Sigma
The series can be described thus: Protease resistance assay, chymotrypsin (LC/MS). The class given is in vitro ADME. Particulars: pH 7.4, 0.5 chymotrypsin, peptide 25 μM.

Series [1] concerns resistant primary R5 isolate YU2. The series can be described thus: Luciferase-based HIV-1 infectivity assay, YU2. Particulars: compared to T649v. The class given is cell-based. From the text: Also the direct inhibitory activity of modified polypeptides and the antibodies targeted thereto can be quantified based upon their capacity to directly block HIV infection of CD4-positive and CCR5-expressing canine thymus cells. Recombinant HIV-1 viruses (eg. HXBc2, YU2, and additional strains available through the NIH AIDS Research and Reference Reagent Program) expressing firefly luciferase and containing the indicated envelope glycoproteins can be used to infect Cf2Th-CD4-CCR5/CXCR4 cells in the presence of serially diluted modified HIV-1 gp41 polypeptides or antibodies targeted thereto After 48 hours, the cells are lysed and luciferase activity is quantified (Si, Z. H., M. Cayabyab, and J. Sodroski, Journal of Virology, 2001. 75(9): p. 4208-4218 Si, Z. H., et al., PNAS, 2004. 101(14): p. 5036-5041). The identical experiment is performed with the amphotropic murine leukemia virus (AMLV), to monitor for any nonspecific effects of the modified polypeptides or antibodies. […]
HIV-1 infectivity assays were performed using known methods (Madani et al., 2007 Inhibition of human immunodeficiency virus envelope glycoprotein-mediated single cell lysis by low-molecular-weight antagonists of viral entry. J Virol, 81: 532-538; and Si et al., 2001 Envelope glycoprotein determinants of neutralization resistance in a simian-human immunodeficiency virus (SHIV-HXBc2P 3.2) derived by passage in monkeys. J Virol, 75:4208-4218; both incorporated herein by reference). […] D-luciferin (50 μL of 1 mM stock in 100 μL luciferin buffer) is then added to each well and luciferase activity measured using a luminometer (EG&G Berthold).
To assess the functional impact of hydrocarbon stapling on gp41-based fusion inhibitor activity, SAH-gp41 peptides were tested and compared to their unmodified counterparts in a luciferase-based HIV-1 infectivity assay. Recombinant HIV-1 bearing the envelope glycoproteins from three distinct HIV-1 strains, HXBc2, ADA, and HXBc2P 3.2, and a negative control virus bearing the amphotropic murine leukemia virus (A-MLV) envelope glycoproteins, were evaluated. […]

Another series has as its system pepsin. The series can be described thus: Protease resistance assay, pepsin at pH 2. Particulars: pepsin (isolated protease) in buffer, pH 2. As to the method: The DAD signal was set to 280 nm with an 8 nm bandwidth and MSD set to scan mode with one channel at (M+2H)/2, +1 mass units and the other at (M+3H)/3, +1 mass units. […] Reaction samples were composed of 5 μL peptide in DMSO (1 mM stock) and 195 μL of buffer consisting of 50 mM phosphate buffer pH 7.4 containing 2 mM CaCl2. Upon injection of the 0 hr time point sample, 2 μL of 50 ng/μL chymotrypsin (Sigma) was added and the amount of intact peptide quantitated by serial injection over time. An internal control of acetylated tryptophan carboxamide at a concentration of 100 μM was used to normalize each MSD data point. A plot of MSD area versus time yielded an exponential decay curve and half-lives were determined by nonlinear regression analysis using Prism software (GraphPad). The assay was also performed using trypsin and pepsin in their appropriate buffer conditions.

Series [2] is described as follows: Circular dichroism, α-helical content. The class given is physicochemical. Here is the method:
The α-helicity of stapled modified polypeptides was compared to their unmodified counterparts by circular dichroism. CD spectra were obtained on an Aviv spectropolarimeter at 20° C. using the following standard measurement parameters: wavelength, 190-260 nm; step resolution, 0.5 nm; speed, 20 nm/sec; accumulations, 10; response, 1 sec; bandwidth, 1 nm; path length, 0.1 cm. The α-helical content of each peptide was calculated by dividing the mean residue ellipticity [θ]222obs, by the reported [θ]222obs for a model helical peptide (Forood, B., E. J. Feliciano, and K. P. Nambiar, PNAS, 1993. 90(3): p. 838-842; J. Martin Scholtz, Biopolymers, 1991. 31(13): p. 1463-1470; Lawless, M. K., et al., Biochemistry, 1996. 35(42): p. 13697-13708) or using, for example, the Aviv machine using CDNN software developed by Brohm in order to deduce five different secondary structure fractions (helix, parallel and antiparallel beta-sheet, beta-turn and random coil). Protein Engineering, 1992. 5(3); p. 191-195
In order to evaluate secondary structure improvements of hydrocarbon-stapled peptides, we record and analyze circular dichroism (CD) spectra on an Aviv Biomedical spectrometer (model 410), as described above. […] The CD spectra are initially plotted as wavelength versus millidegree. […] After conversion to mean residue ellipticity, percent α-helicity can be calculated using the equation, % helicity=100×[θ]222/^max[θ]222, where ^max[θ]222=−40,000×[1−(2.5/number of amino acid residues)]. We also employ the curve-fitting CDDN software that is bundled with our spectrometer to calculate the relative fractions of secondary structure including α-helix, parallel and antiparallel β-sheet, β-turn and random coil.
Background: Circular dichroism is the unequal absorption of left and right circularly polarised light.

Bridge positions count the residues as written; N and C are the ends. Square brackets hold non-standard residues; d marks the D form. Peptide text beside a SMILES is read from it. S5 = C=CCCC[C@](C)(N)C(=O)O; Nle = CCCC[C@H](N)C(=O)O

As a reminder, the half-life is the time in which the quantity being followed falls by half. Lower therefore signals rapid decline. With `CCCC[C@H](NC(C)=O)C(=O)N[C@H](C(=O)N[C@@H](Cc1c[nH]c2ccccc12)C(=O)N[C@@]1(C)CCCC=CCCC[C@@](C)(C(=O)N[C@@H](CCC(=O)O)C(=O)N[C@H](C(=O)N[C@@H](CC(N)=O)C(=O)N[C@@H](CC(N)=O)C(=O)N[C@@H](Cc2ccc(O)cc2)C(=O)N[C@H](C(=O)N[C@@H](CO)C(=O)N[C@@H](CC(C)C)C(=O)N[C@H](C(=O)N[C@@H](Cc2c[nH]cn2)C(=O)N[C@@H](CO)C(=O)N[C@@H](CC(C)C)C(=O)N[C@H](C(=O)N[C@@H](CCC(=O)O)C(=O)N[C@@H](CCC(=O)O)C(=O)N[C@@H](CO)C(=O)N[C@@H](CCC(N)=O)C(=O)N[C@@H](CC(N)=O)C(=O)N[C@@H](CCC(N)=O)C(=O)N[C@@H](CCC(N)=O)C(=O)N[C@@H](CCC(=O)O)C(=O)N[C@@H](CCCCN)C(=O)N[C@@H](CC(N)=O)C(=O)N[C@@H](CCC(=O)O)C(=O)N[C@@H](CCC(N)=O)C(=O)N[C@@H](CCC(=O)O)C(=O)N[C@@H](CC(C)C)C(=O)N[C@@H](CC(C)C)C(=O)N[C@@H](CCC(=O)O)C(N)=O)[C@@H](C)CC)[C@@H](C)CC)[C@@H](C)O)[C@@H](C)CC)NC(=O)[C@H](CC(=O)O)NC(=O)[C@H](Cc2c[nH]c3ccccc23)NC(=O)[C@H](CCC(=O)O)NC1=O)[C@@H](C)O` [SAH-gp41(626-662)(A)] (Ac-[Nle]TW[S5]EWD[S5]EINNYTSLIHSLIEESQNQQEKNEQELLE-NH2; staple 4-8; N-terminus and C-terminus assumed), the “Half-Life” value is 1.93 h in “Chymotrypsin, pH 7” and 1.32 h at chymotrypsin. Besides, the “anti-YU2 activity, in words” value in series [1] is listed as “enhanced anti-YU2 activity”. Also, the half-life at 25 μM in the series on pepsin was 1.97 h.
Regarding `CCCC[C@H](NC(C)=O)C(=O)N[C@H](C(=O)N[C@@H](Cc1c[nH]c2ccccc12)C(=O)N[C@@H](CCCC)C(=O)N[C@@H](CCC(=O)O)C(=O)N[C@@H](Cc1c[nH]c2ccccc12)C(=O)N[C@@H](CC(=O)O)C(=O)N[C@@H](CCCNC(=N)N)C(=O)N[C@@H](CCC(=O)O)C(=O)N[C@H](C(=O)N[C@@H](CC(N)=O)C(=O)N[C@@H](CC(N)=O)C(=O)N[C@@H](Cc1ccc(O)cc1)C(=O)N[C@H](C(=O)N[C@@H](CO)C(=O)N[C@@H](CC(C)C)C(=O)N[C@H](C(=O)N[C@@H](Cc1c[nH]cn1)C(=O)N[C@@H](CO)C(=O)N[C@@H](CC(C)C)C(=O)N[C@H](C(=O)N[C@@H](CCC(=O)O)C(=O)N[C@@H](CCC(=O)O)C(=O)N[C@@H](CO)C(=O)N[C@@H](CCC(N)=O)C(=O)N[C@@H](CC(N)=O)C(=O)N[C@@H](CCC(N)=O)C(=O)N[C@@]1(C)CCCC=CCCC[C@@](C)(C(=O)N[C@@H](CCC(N)=O)C(=O)N[C@@H](CCC(=O)O)C(=O)N[C@@H](CC(C)C)C(=O)N[C@@H](CC(C)C)C(=O)N[C@@H](CCC(=O)O)C(N)=O)NC(=O)[C@H](CC(N)=O)NC(=O)[C@H](CCCCN)NC(=O)[C@H](CCC(=O)O)NC1=O)[C@@H](C)CC)[C@@H](C)CC)[C@@H](C)O)[C@@H](C)CC)[C@@H](C)O` [SAH-gp41(626-662)(F)] (Ac-[Nle]TW[Nle]EWDREINNYTSLIHSLIEESQNQ[S5]EKN[S5]QELLE-NH2; staple 28-32; N-terminus and C-terminus assumed), the “Half-Life” value in “Chymotrypsin, pH 7” stood at 1.28 h; at chymotrypsin, 1.7 h. Also, the “% helicity at pH 2” value in series [2] (pH 2) is recorded as 82%. In addition, the “% helicity at pH 7” value in series [2] (pH 7) is 63%. Further, the “anti-YU2 activity, in words” value in series [1] is given as “enhanced anti-YU2 activity”. The same compound yielded a half-life at 25 μM in the series with pepsin of 2.15 h.
